Test results as given in ChEMBL document CHEMBL1201862, “PubChem BioAssay data set” (2004).
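Tested at 5 concentrations; 48 h exposure; 96-well plates; endpoints linearly interpolated, else capped at highest concentration. GI50 marks 50% less growth.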 Active and inactive are the calls of the source. Cut-off read from the data, not from the text of the source: active = GI50 up to about 1.1 µM and inactive = higher.

Experiments:
Assay in all cases: NCI anticancer screen, dose series, 48 h
[1] = system: HL-60
[2] = system: EKVX
[3] = system: OVCAR-3
[4] = system: A549
[5] = system: U-251
[6] = system: HCC 2998
[7] = system: SF-268
[8] = system: A498
[9] = system: SN12C
[10] = system: NCI-H460
[11] = system: HCT-15
[12] = system: SK-MEL-28
[13] = system: SK-MEL-2
[14] = system: HT-29
[15] = system: IGROV-1
[16] = system: COLO 205
[17] = system: SF-295
[18] = system: MCF7
[19] = system: OVCAR-5
[20] = system: SW-620

Compound | GI50 [1] | GI50 [2] | GI50 [3] | GI50 [4] | GI50 [5] | GI50 [6] | GI50 [7] | GI50 [8] | GI50 [9] | GI50 [10] | GI50 [11] | GI50 [12] | GI50 [13] | GI50 [14] | GI50 [15] | GI50 [16] | GI50 [17] | GI50 [18] | GI50 [19] | GI50 [20]
N/C(=N\O)N/N=C\c1ccc(O)c(O)c1O | 17.2 µM (inactive) | > 78.5 µM (inactive) | 22.7 µM (inactive) | > 58.7 µM (inactive) | > 52.8 µM (inactive) | 36.9 µM (inactive) | 60.1 µM (inactive) | > 30.8 µM (inactive) | 19.5 µM (inactive) | 17.1 µM (inactive) | 19.2 µM | > 100 µM (inactive) | > 46 µM (inactive) | 11.1 µM (inactive) | 57 µM (inactive) | 12.9 µM (inactive) | 12.2 µM (inactive) | 16.7 µM (inactive) | > 48.1 µM (inactive) | 19.7 µM (inactive)
S=c1sc2c(s1)SC(c1ccccc1)CS2 (stereo not given) | > 51.3 µM (inactive) | > 100 µM (inactive) | > 66.2 µM (inactive) | > 100 µM (inactive) | > 100 µM (inactive) | > 85.1 µM (inactive) | > 100 µM (inactive) | > 100 µM (inactive) | > 100 µM (inactive) | > 100 µM (inactive) | > 100 µM | > 100 µM (inactive) | > 100 µM (inactive) | > 100 µM (inactive) | > 100 µM (inactive) | > 100 µM (inactive) | 25.8 µM (inactive) | > 100 µM (inactive) | > 100 µM (inactive) | > 100 µM (inactive)
COc1cc([N+](=O)[O-])ccc1N1C(=O)C2c3[nH]c4ccccc4c3C3CCC(C(C)(C)C)CC3C2C1=O (stereo not given) | > 100 µM (inactive) | 33.4 µM (inactive) | > 100 µM (inactive) | > 100 µM (inactive) | 9.79 µM (inactive) | > 100 µM (inactive) |  | > 100 µM (inactive) | 64.4 µM (inactive) | 18.9 µM (inactive) | > 100 µM | 9.12 µM (inactive) | 94.8 µM (inactive) | 88.9 µM (inactive) | > 100 µM (inactive) | > 100 µM (inactive) |  | > 100 µM (inactive) | 80.5 µM (inactive) | > 100 µM (inactive)
CNC(=O)OCC1=C(COC(=O)NC)CN(c2ccc(OC)cc2)C1 | > 100 µM (inactive) | > 100 µM (inactive) | > 100 µM (inactive) | > 100 µM (inactive) | > 100 µM (inactive) | > 100 µM (inactive) | > 100 µM (inactive) | 1.9 µM (inactive) | > 100 µM (inactive) | > 100 µM (inactive) | > 100 µM | > 100 µM (inactive) | > 100 µM (inactive) | > 100 µM (inactive) | > 100 µM (inactive) | > 100 µM (inactive) | > 100 µM (inactive) | > 100 µM (inactive) | > 100 µM (inactive) | > 100 µM (inactive)
O=C1c2cc3c(cc2CC1Cc1ccc2c(c1)CCC2)CCC3 (stereo not given) | 66.2 µM (inactive) | > 100 µM (inactive) | 63.4 µM (inactive) | 64.4 µM (inactive) | 37.3 µM (inactive) | 36.7 µM (inactive) | 35.6 µM (inactive) | 32.3 µM (inactive) | 41.4 µM (inactive) | 34.4 µM (inactive) | 47.5 µM | > 100 µM (inactive) | 48.8 µM (inactive) | 40 µM (inactive) | 31.6 µM (inactive) | 25 µM (inactive) | 23.5 µM (inactive) | 93.1 µM (inactive) | > 100 µM (inactive) | 45.5 µM (inactive)
CC1(C)OCC(CO)(CO)CO1 | > 100 µM (inactive) |  | > 100 µM (inactive) | > 100 µM (inactive) | > 100 µM (inactive) | > 100 µM (inactive) | > 100 µM (inactive) | 14 µM (inactive) | > 100 µM (inactive) | > 100 µM (inactive) | > 100 µM | > 100 µM (inactive) |  | > 100 µM (inactive) |  | > 100 µM (inactive) | > 100 µM (inactive) | > 100 µM (inactive) |  | > 100 µM (inactive)
COc1ccc(C(=O)C2CC3(CCC2(O)c2ccc(OC)cc2)CC(=O)Nc2ccccc2C3=O)cc1 (stereo not given) | 5.08 µM (inactive) | > 100 µM (inactive) | > 100 µM (inactive) | > 100 µM (inactive) | 63.7 µM (inactive) | 79.3 µM (inactive) | > 100 µM (inactive) | > 100 µM (inactive) | > 100 µM (inactive) | 6.75 µM (inactive) | 5.85 µM |  | > 100 µM (inactive) | > 100 µM (inactive) | > 100 µM (inactive) | 11.7 µM (inactive) | > 100 µM (inactive) | 3.03 µM (inactive) | > 100 µM (inactive) | > 100 µM (inactive)
CCOC(=O)Cc1cnc(NC(NC(=O)CC)(C(F)(F)F)C(F)(F)F)s1 | > 100 µM (inactive) | > 100 µM (inactive) | > 100 µM (inactive) |  | > 100 µM (inactive) | 93.3 µM (inactive) | > 100 µM (inactive) | > 100 µM (inactive) | > 100 µM (inactive) | > 100 µM (inactive) | > 100 µM | > 100 µM (inactive) | > 100 µM (inactive) | > 100 µM (inactive) |  |  |  | > 100 µM (inactive) | > 100 µM (inactive) | 
CNC(=O)OC(C)CN1c2ccccc2Sc2ccc(Cl)cc21 (stereo not given) | > 10 µM (inactive) | > 10 µM (inactive) | > 10 µM (inactive) | > 10 µM (inactive) | > 10 µM (inactive) | > 10 µM (inactive) | > 10 µM (inactive) | > 10 µM (inactive) | > 10 µM (inactive) | > 10 µM (inactive) | > 10 µM | > 10 µM (inactive) | > 10 µM (inactive) | > 10 µM (inactive) | > 10 µM (inactive) | > 10 µM (inactive) | > 10 µM (inactive) | > 10 µM (inactive) | > 10 µM (inactive) | > 10 µM (inactive)
COc1cc(/N=N\c2cccc(S(=O)(=O)O)c2)ccc1/N=N\c1ccc(/C=C/c2ccc(-n3on3-c3ccc(/C=C/c4ccc(/N=N/c5ccc(/N=N\c6cccc(S(=O)(=O)O)c6)cc5OC)cc4S(=O)(=O)O)c(S(=O)(=O)O)c3)cc2S(=O)(=O)O)c(S(=O)(=O)O)c1 | > 80 µM (inactive) | > 100 µM (inactive) | > 100 µM (inactive) | > 100 µM (inactive) | > 100 µM (inactive) | > 100 µM (inactive) | > 100 µM (inactive) | > 100 µM (inactive) | > 100 µM (inactive) | > 100 µM (inactive) | > 100 µM | > 100 µM (inactive) | > 100 µM (inactive) | > 100 µM (inactive) | > 100 µM (inactive) | > 100 µM (inactive) | > 100 µM (inactive) | > 100 µM (inactive) | > 100 µM (inactive) | > 100 µM (inactive)
COc1cc(C2c3cc4c(cc3[C@@H](Nc3ccc(Oc5ccccc5)cc3)C3COC(=O)[C@H]23)OCO4)cc(OC)c1O (stereo not given in full) | 0.362 µM (active) | > 39.7 µM (inactive) | > 62.2 µM (inactive) | 0.916 µM (active) | 2.36 µM (inactive) | 1.64 µM (inactive) | 2.52 µM (inactive) | 1.24 µM (inactive) | 2.7 µM (inactive) | 0.0867 µM (active) | 1.3 µM | > 42.3 µM (inactive) | > 29.9 µM (inactive) | 1.74 µM (inactive) | 4.38 µM (inactive) | 1.5 µM (inactive) | 1.27 µM (inactive) | 0.4 µM (active) | > 61 µM (inactive) | 2.07 µM (inactive)
Oc1nc2ccccc2c2oc3ccccc3c12 |  | 2.9 µM (inactive) | > 100 µM (inactive) | > 100 µM (inactive) | > 100 µM (inactive) | > 100 µM (inactive) | > 100 µM (inactive) | > 100 µM (inactive) | > 100 µM (inactive) | > 100 µM (inactive) | > 100 µM | > 100 µM (inactive) |  | > 100 µM (inactive) | > 100 µM (inactive) | > 100 µM (inactive) | > 100 µM (inactive) | > 100 µM (inactive) |  | > 100 µM (inactive)
